Data reported in patent US12522597B2, “Methods and compositions for modulating splicing” (Skyhawk Therapeutics, Inc., priority 2019, dated 2026).
Where two headings read alike, the source gives them in different places.

Experiments:
[1] = tested on: Huntingtin (HTT) transcripts; assay: Quantitative splicing assay (HTT), qPCR; type: cell-based; settings: Homo sapiens, GM04724 (CAG 70/20) Huntington's disease patient lymphoblasts, 24 h
Description: GM04724 (CAG 70/20) Huntington's disease patient lymphoblasts (Coriell) are plated in 96-wel v-bottom plates at 50,000 cells/well. Immediately after plating, cells are dosed with compound for 24 h at concentrations ranging from 2.5 uM to 0.15 nM (0.1% DMSO). Treated cells are lysed and cDNA synthesized using the Fast Advanced Cells-to-Ct kit (Thermofisher A35378) according to the manufacturer's instructions. 2 uL of each cDNA are used in qPCR reactions to confirm the compound-induced inclusion of a cryptic exon within intron 49 of the Huntingtin (HTT) transcripts. The qPCR reactions are prepared in 384-well plates in 10 uL volume, using TaqMan™ Fast Advanced Master Mix [ThermoFisher; 4444965] with primers and probes shown in the table below. Reactions are run in a Quant Studio 6 qPCR instrument with default settings.

[2] = tested on: mHTT protein; assay: mHTT protein assay (2B7-MW1, Mesoscale Discovery); type: cell-based, human; settings: GM04724 (CAG 70/20) Huntington's disease patient lymphoblast cells, 48 hours, 2B7-MW1 MSD; read-out: HTT Potency - Protein EC50 mHTT (average)
How it was run: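 mHTT levels were read with the 2B7-MW1 antibody pair (N17 and polyQ epitopes) on MSD after 48 h dosing, 10 μM–0.6 nM. Cells were GM04724 HD lymphoblasts (CAG 70/20). A replica plate was read by CTG for cell viability.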

[3] = tested on: MDR1-MDCK cell monolayers; assay: MDCK-MDR1 permeability assay (BBB penetration potential); type: in vitro ADME; settings: dog, MDCK-MDR1, 120 min, 5 μM, pH 7.4
Description: (§1) Each determination is performed in duplicate. […] Analytical conditions are outlined below.

[4] = tested on: MDR1; assay: as above; type: in vitro ADME; settings: dog; for efflux ratio at 120 min, 5 μM: MDCK-MDR1, pH 7.4, MDCK-MDR1: Efflux; for Papp A→B at 120 min, 5 μM: MDCK-MDR1, pH 7.4, MDCK-MDR1: Papp A-B; for Papp B→A at 120 min, 5 μM: MDCK-MDR1, pH 7.4, MDCK-MDR1: Papp B-A
Description: as §1

[5] = qPCR HTTex49_50, read-out: HTT Potency - Splicing: E49-50 EC50 (average)
[6] = qPCR cryptic exon 49b inclusion, read-out: HTT Potency - Splicing: E49b EC50 (average)

| Structure (SMILES) | EC50 [1, 5] [nM] | EC50 [1, 6] [nM] | EC50 [2] [nM] | MDCK-MDR1: % Recov A-B [3] [%] | MDCK-MDR1: % Recov B-A [3] [%] | efflux ratio at 120 min, 5 μM [4] | Papp A→B at 120 min, 5 μM [4] [×10⁻⁶ cm/s] | Papp B→A at 120 min, 5 μM [4] [×10⁻⁶ cm/s] |
| --- | --- | --- | --- | --- | --- | --- | --- | --- |
| C[C@@]12CC[C@@](C)(N1)[C@@H](F)[C@@H](Oc1ccc(-c3ccc(-c4cn[nH]c4)cc3O)nn1)C2 (single isomer, unassigned) [2-ENT2] | 0.01 to 15 | 0.01 to 15 | 0.01 to 15 | 90 | 87 | 3 | 14.5 | 46.4 |
| Cn1cc(-c2ccc(-c3ccc(O[C@@H]4C[C@H]5CCC[C@H](N5)[C@@H]4F)nn3)c(O)c2F)cn1 (single isomer, unassigned) [119-ENT1] | 16 to 50 | 16 to 50 | 16 to 50 | 56 | 80 | 10 | 3.4 | 33 |
| Cn1cc(-c2cc(O)c(-c3ccc(O[C@@H]4C[C@H]5CCC[C@H](N5)[C@@H]4F)nn3)cn2)cn1 (single isomer, unassigned) [64-ENT1] | 501 to 10000 | 501 to 10000 | 501 to 10000 | 99 | 101 | 68 | 0.18 | 12.4 |
| Cn1cc(-c2cc(O)c(-c3ccc(O[C@@H]4C[C@H]5CCC[C@H](N5)[C@@H]4F)nn3)c(F)c2)cn1 (single isomer, unassigned) [118-ENT1] | 51 to 100 | 51 to 100 | 51 to 100 | 52 | 80 | 5 | 6.21 | 33.3 |
| Cn1ccc2cc(O)c(-c3ccc(O[C@H]4C[C@@H]5CC[C@@H](N5)[C@H]4F)nn3)cc2c1=O (single isomer, unassigned) [129-ENT1] | 101 to 500 | 101 to 500 | 16 to 50 | 89 | 91 | 12 | 4.29 | 52.8 |
| Cc1cc(-c2ccc(-c3ccc(O[C@@H]4C[C@H]5CCC[C@H](N5)[C@@H]4F)nn3)c(O)c2)ccn1 (single isomer, unassigned) [88-ENT1] | 16 to 50 | 16 to 50 | 16 to 50 | 51 | 64 | 3 | 7.03 | 22.1 |
| Oc1cc(-n2ccc(F)n2)ccc1-c1ccc(O[C@@H]2C[C@H]3CCC[C@H](N3)[C@@H]2F)nn1 (single isomer, unassigned) [115-ENT1] | 0.01 to 15 | 0.01 to 15 | 16 to 50 | 44 | 70 | 3 | 7.15 | 20.3 |
| Cn1cc(-c2ccc(-c3ccc(O[C@@H]4C[C@@]5(C)CCC[C@](C)(N5)[C@@H]4F)nn3)c(O)c2)cn1 (single isomer, unassigned) [154-ENT2] | 16 to 50 | 0.01 to 15 | 16 to 50 | 81 | 92 | 3 | 6.92 | 22 |
| Cn1cc(-c2ccc(-c3ccc(O[C@H]4C[C@H]5CCC[C@H](N5)[C@@H]4F)nn3)c(O)c2)cn1 (single isomer, unassigned) [121-ENT1] | 501 to 10000 | 501 to 10000 | 501 to 10000 | 66 | 73 | 5 | 11 | 50.3 |
| Cn1ccc2cc(O)c(-c3ccc(O[C@@H]4C[C@H]5CC[C@H](N5)[C@@H]4F)nn3)cc2c1=O (single isomer, unassigned) [129-ENT2] | 51 to 100 | 16 to 50 | 0.01 to 15 | 72 | 79 | 9 | 4.94 | 45.7 |
| Cn1ccc(-c2ccc(-c3ccc(O[C@H]4C[C@@H]5CCC[C@@H](N5)[C@H]4F)nn3)c(O)c2)cc1=O (single isomer, unassigned) [54-ENT2] | 16 to 50 | 16 to 50 | 16 to 50 | 101 | 107 | 34 | 1.8 | 61.9 |
| Cn1ccc(-c2ccc(-c3ccc(O[C@@H]4C[C@@]5(C)CCC[C@](C)(N5)[C@@H]4F)nn3)c(O)c2)cc1=O (single isomer, unassigned) [149-ENT2] | 16 to 50 | 16 to 50 | 16 to 50 | 76 | 73 | 24 | 1.94 | 45.7 |
| Cn1ccc2cc(-c3ccc(O[C@@H]4C[C@H]5CC[C@H](N5)[C@@H]4F)nn3)c(O)cc2c1=O (single isomer, unassigned) [126-ENT2] | 501 to 10000 | 101 to 500 | 101 to 500 | 93 | 92 | 13 | 3.51 | 45.5 |
| Cn1ccc(-c2cc(O)c(-c3ccc(O[C@H]4C[C@@H]5CCC[C@@H](N5)[C@H]4F)nn3)cc2F)cc1=O (single isomer, unassigned) [58-ENT2] | 16 to 50 | 16 to 50 | 0.01 to 15 | 83 | 90 | 47 | 1.17 | 55.1 |
| Cc1nc(-c2ccc(-c3ccc(O[C@H]4C[C@@H]5CCC[C@@H](N5)[C@H]4F)nn3)c(O)c2)cs1 (single isomer, unassigned) [71-ENT1] | 16 to 50 | 16 to 50 | 16 to 50 | 47 | 60 | 4 | 4.96 | 18.6 |
| Cn1cc(-c2ccc(-c3ccc(O[C@@H]4C[C@H]5CC[C@H](N5)[C@@H]4F)nn3)c(O)c2)cn1 (single isomer, unassigned) [60-ENT1] | 51 to 100 | 16 to 50 | 16 to 50 | 68 | 84 | 4 | 7.46 | 30.5 |
| Oc1cc(-c2cn[nH]c2)c(F)cc1-c1ccc(O[C@H]2C[C@@H]3CCC[C@@H](N3)[C@H]2F)nn1 (single isomer, unassigned) [56-ENT2] | 0.01 to 15 | 0.01 to 15 | 0.01 to 15 | 68 | 79 | 13 | 2.69 | 36 |
| Cn1cc(-c2ccc(-c3ccc(O[C@H]4C[C@@H]5CC[C@@H](N5)[C@H]4F)nn3)c(O)c2)cn1 (single isomer, unassigned) [60-ENT2] | 16 to 50 | 16 to 50 | 51 to 100 | 67 | 78 | 4 | 8.12 | 31.3 |
